Measured values: patent US5721359A, “Crystalline ceftiofur free acid” (Pharmacia & Upjohn Company, priority 1995, dated 1998)
“Also recorded” adds a separate entry of the source. Where a name gives a salt, the structure may show the parent alone. Read-outs that look alike come from different tables or passages of the source. Values belong to the compound of their own block, whether it stands above or below them.

Legend:
[1] = Solubility; assay type: physicochemical; settings: for Solubility-pH7: pH 7; for solubility in aqueous solvents, comparison crystalline free acid vs crystalline hydrochloride: in words
Text: "Solubility" is a direct consequence of a solid's structure and the intermolecular forces holding the solid together and is defined as the mount of drug which exists in solution when equilibrium is achieved between solution and solid state material.

[2] = Dissolution rate (Table II, FIG. 9); assay type: physicochemical; settings: shown graphically in FIG. 9
Text: "Dissolution rate" is the kinetic translation of solubility for a well stirred system under sink conditions.

[3] = In vivo release; settings: for In Vivo Release: Table II; for sustained release properties in vivo: in words
Text: "In-vivo release" is the biological consequence of the dissolution rate of a compound which is characterized by time to maximum concentration and the maximum concentration in the biological fluid of interest.

[4] = Stability in bulk, aqueous and other formulations; assay type: physicochemical
[5] = Hygroscopity; assay type: physicochemical; settings: for Hygroscopity: Table II
Text: "Hygroscopity" is the ability of a compound to pick up moisture from or yield moisture to the atmosphere with changes in relative humidity.

[6] = In vitro dissolution of ceftiofur oil suspension formulations (Example 7); assay type: physicochemical; settings: 100 mg/ml oil formulation, 500 ml pH 7 aqueous media, 50 RPM paddle, FIG. 6
Protocol: 100 mg samples of crystalline ceftiofur free acid, amorphous ceftiofur free acid (prepared as described in Example 1) and crystalline ceftiofur hydrochloride, which were all prepared as oil formulations as described in Example 4 above, were loaded into teflon dissolution cells and sealed with a constant surface area dialysis membrane. The loaded cells were placed in a standard dissolution apparatus containing 500 ml of pH 7 aqueous dissolution media which was stirred by a 50 RPM rotating paddle.
The results obtained are shown below in FIG. 6 below.

[7] = design: species or system cattle; settings: bovine, in vivo, sc, 4.4 mg/kg
Protocol: Cattle were administered a single subcutaneous dose (4.4 mg/kg body weight) of crystalline ceftiofur free acid and amorphous ceftiofur free acid (both prepared and then formulated as described above in Examples 1, 3 and 4). The concentration of plasma ceftiofur and desfuroylceftiofur related metabolites were determined over time for 120 hours. The primary decision criteria (that most related to efficacy) was considered to be the time that the ceftiofur metabolite concentrations remained above 0.2 mcg/ml (t>0.2). Less important parameters calculated included "area under the concentration-time curve" (AUC) for each treatment and time to maximum concentrations (tmax).
The results are shown graphically in FIG. 7 below by plotting plasma concentration of desfuroylceftiofur acetamide (DCA) versus time using average data for 6 animals/treatment. […] This is especially important in light of the two forms obtaining statistically equivalent peak concentrations (9.1 mcg/ml for the amorphous ceftiofur free acid versus 7.3 mcg/ml for the crystalline ceftiofur free acid).

[8] = Plasma disposition of oil suspension of ceftiofur crystalline free acid vs aqueous solution of ceftiofur sodium in cattle (Example 6); assay type: in vivo, cattle (Holstein calves); settings: SC; for t>0.2 (time ceftiofur metabolite concentrations remained above 0.2 μg/mL): 2.2 mg ceftiofur activity/kg
Protocol: Sixteen Holstein calves were administered ceftiofur crystalline free acid in an oil suspension (100 mg/mL) or ceftiofur sodium (NAXCEL® Sterile Powder) as an aqueous solution (50 mg/mL) subcutaneously (SC) in a crossover study (each calf received each treatment), with a two-week washout period between doses (2.2 mg ceftiofur activity/kg body weight). Blood samples were obtained serially for 120 hours after drug administration for analysis of ceftiofur and metabolites (measured as desfuroylceftiofur acetamide by HPLC). The primary decision variable was the time ceftiofur metabolite concentrations remained above 0.2 μg/mL (t>0.2), with secondary decision variables being "relative area under the concentration-time curve" (AUC) of the treatments and injection site irritancy assessed antemortem by visual and manual inspection of the injection site over time. Both t>0.2 and AUC were calculated using both the predictive pharmacokinetic equation method and the direct graphical method of trapezoids (AUC) and log-linear interpolation (t>0.2).

[9] = Comparison of time above minimum plasma concentration for ceftiofur derivatives; assay type: in vivo
Text: Using the criteria for sustained release as the time which plasma concentrations remain above some minimum concentration (t>0.2), a comparison of various derivatives of ceftiofur can be made. […] This difference is of practical and statistical significance.

[10] = Processing (micronization); assay type: physicochemical; settings: Table II, cell wraps: 'Difficult to micronize'
[11] = Plasma disposition of aqueous suspensions of ceftiofur crystalline free acid in cattle (Example 5); assay type: in vivo, cattle (Holstein calves); settings: aqueous suspension 100 mg/mL, single dose 1.1 mg ceftiofur activity/kg
Protocol: Sixteen Holstein calves were administered ceftiofur crystalline free acid in an aqueous suspension (100 mg/mL) by the intramuscular (IM) or subcutaneous (SC) route of administration as a single dose of 1.1 mg ceftiofur activity/kg in a crossover study (each calf got each treatment), with a two-week washout between doses. Blood samples were obtained serially for 120 hours for analysis of ceftiofur and metabolites (measured as desfuroylceftiofur acetamide by HPLC). The primary decision variable was the time ceftiofur metabolite concentrations remained above 0.2 μg/mL (t>0.2), with secondary decision variables being "relative area under the concentration-time curve" (AUC) of the treatments and injection site irritancy assessed antemortem by visual and manual inspection of the injection sites over time. Both t>0.2 and AUC were calculated using both the predictive pharmacokinetic equation method and the direct graphical method of trapezoids (AUC) and log linear interpolation (t>0.2).

[12] = Plasma disposition of crystalline ceftiofur hydrochloride and crystalline ceftiofur free acid oil suspensions in cattle (Example 9); assay type: in vivo; settings: SC, 2.2 mg/kg, oil suspension, 16 animals/treatment; separate studies
Protocol: In separate but similarly designed studies conducted in the same laboratory, crystalline ceftiofur free acid (CFA) and crystalline ceftiofur hydrochloride (HCl) suspensions were administered subcutaneously to cattle at a dose of 2.2 mg/kg body weight. In each experiment, plasma samples were obtained for up to 120 hours after drug administration for determination of ceftiofur and its metabolites. The results are shown graphically in FIG. 8 below by plotting plasma concentration (on a logarithmic scale) versus time using average data for 16 animals/treatment. The primary decision criteria (that most related to efficacy) was considered to be the time that the ceftiofur metabolite concentrations remained above 0.2 mcg/ml (t>0.2). Less important parameters measures included "area under the concentration-time curve" (AUC) for each treatment and time to peak and peak concentrations.

[13] = unstable in 6 weeks (cell wraps over two lines)
[14] = listed as Crystalline Free Acid

Solubility-pH7 ([1]; listed as Amorphous Free Acid): ≈ 100 mg/mL
Dissolution Rate ([2]; listed as Amorphous Free Acid): Fast
In Vivo Release ([3]; listed as Amorphous Free Acid): Fast
Stability in Aqueous Formulations (>90% initial potency) [4, 13]: Unstable
Hygroscopity ([5]; listed as Amorphous Free Acid): High
release from the oil formulation into the dissolution media [6]: very fast release
AUC (area under the concentration-time curve) [7]: 70 µg·h/mL
peak concentrations [7]: 9.1 µg/mL
t>0.2 (time metabolite concentrations remained above 0.2 mcg/ml) [7]: 41 h
time to peak concentration (tmax) [7]: 2 h
Compound: CON=C(C(=O)NC1C(=O)N2C(C(=O)O)=C(CSC(=O)c3ccco3)CSC12)c1csc(N)n1 (stereo not shown) [amorphous ceftiofur free acid, reference compound]

t>0.2 (time ceftiofur metabolite concentrations remained above 0.2 μg/mL) ([8]; aqueous solution 50 mg/mL): 45.50 h
Compound: CO/N=C(\C(=O)N[C@@H]1C(=O)N2C(C(=O)O)=C(CSC(=O)c3ccco3)CS[C@H]12)c1csc(N)n1 [ceftiofur sodium]
rank order of time above the selected minimum plasma concentration (t>0.2) ([9]; aqueous formulations): sodium<crystalline hydrochloride<crystalline free acid<zinc
rank order of duration above minimum plasma concentration (t>0.2) ([9]; oil formulations): sodium<crystallinehydrochloride<zinc<crystalline free acid

solubility in non-polar solvents ([1]; non-polar solvents): insoluble in non-polar solvents
Solubility-pH7 [1, 14]: ≈ 8 mg/mL
solubility in water ([1]; water): sparingly soluble in water
Dissolution Rate [2, 14]: Slow
In Vivo Release [3, 14]: Prolonged
sustained release properties in vivo [3]: has sustained release properties in vivo
Stability in Aqueous Formulations (>90% initial potency) ([4]; >90% initial potency): Stable for 6 months
stability (in bulk and formulations) relative to crystalline hydrochloride salt and amorphous free acid ([4]; in words): superior
Hygroscopity [5, 14]: Low
hygroscopicity relative to crystalline hydrochloride salt and amorphous free acid ([5]; in words): superior
Processing (micronize) [10, 14]: Micronizes easier
t>0.2 (time ceftiofur metabolite concentrations remained above 0.2 μg/mL) ([11]; IM): 26.98 h
t>0.2 (time ceftiofur metabolite concentrations remained above 0.2 μg/mL) ([11]; SC, P=0.257 vs IM): 30.43 h
terminal phase half-life (absorption phase, flip-flop model) compared with ceftiofur sodium ([8]; crystalline free acid in oil, 2.2 mg/kg): longer
t>0.2 (time ceftiofur metabolite concentrations remained above 0.2 μg/mL) ([8]; oil suspension 100 mg/mL, P<0.0001 vs ceftiofur sodium): 121.58 h
bioavailability compared with aqueous solution of ceftiofur sodium ([8]; oil suspension vs aqueous solution, 2.2 mg/kg, P>0.05): equally bioavailable
release from the oil formulation into the dissolution media [6]: significantly reduced release
AUC (area under the concentration-time curve) [7]: 183 µg·h/mL
AUC compared with amorphous ceftiofur free acid [7]: more than twice
peak concentrations [7]: 7.3 µg/mL
t>0.2 (time metabolite concentrations remained above 0.2 mcg/ml) [7]: 101 h
time to peak concentration (tmax) [7]: 8 h
t>0.2 (time metabolite concentrations remained above 0.2 mcg/ml) [12]: 121.6 h
rank order of duration above minimum plasma concentration (t>0.2) ([9]; oil formulations): the longest
Compound: CON=C(C(=O)NC1C(=O)N2C(C(=O)O)=C(CSC(=O)c3ccco3)CSC12)c1csc(N)n1 (stereo not shown) [crystalline ceftiofur free acid]
solubility in aqueous solvents, comparison crystalline free acid vs crystalline hydrochloride [1]: lower solubility in aqueous solvents than its crystalline hydrochloride salt
Dissolution Rate [2]: slow dissolution rate; also recorded: slower
rank order of time above the selected minimum plasma concentration (t>0.2) ([9]; aqueous formulations): sodium<crystalline hydrochloride<crystalline free acid<zinc

solubility ([1]; pH 7, pH 7, cell of crystalline hydrochloride salt, read-out: Solubility-pH7): ~100 mg/mL
Dissolution Rate [2]: Fast
In Vivo Release [3]: Fast
Stability in Aqueous Formulations (>90% initial potency) [4, 13]: Unstable
Hygroscopity [5]: Moderate
Processing (micronize) [10]: Micronizes easier
release from the oil formulation into the dissolution media [6]: very fast release
t>0.2 (time metabolite concentrations remained above 0.2 mcg/ml) [12]: 38.5 h
Compound: CO/N=C(\C(=O)N[C@@H]1C(=O)N2C(C(=O)O)=C(CSC(=O)c3ccco3)CS[C@H]12)c1csc(N)n1 [crystalline ceftiofur hydrochloride, reference compound]
solubility in aqueous solvents, comparison crystalline free acid vs crystalline hydrochloride [1]: much greater solubility than the crystalline free acid
sustained release properties in vivo [3]: does not have useful sustained release properties

Compound: zinc
rank order of duration above minimum plasma concentration (t>0.2) ([9]; in vivo): sodium<crystallinehydrochloride<zinc<crystalline free acid
rank order of time above the selected minimum plasma concentration (t>0.2) ([9]; in vivo): sodium<crystalline hydrochloride<crystalline free acid<zinc
